Source: patent US20080207594A1, “Use of Gsk-3 Inhibitors for Preventing and Treating Pancreatic Autoimmune Disorders” (Davelogen Aktiengesellschaft, priority 2005, published 2008)

Key:
Pax4 [1] = test: Pax4 transcription in INS-1E insulinoma cells, quantitative RT-PCR; type: cell-based, rat; conditions: INS-1E cells
Source text: The response of the Pax4 gene to test compounds was investigated in the rat insulinoma cell line INS-1E. INS-1E cells are known to express Pax4 and to upregulate Pax4 levels in response to the treatment with activin-A and betacellulin. In the search for novel beta cell mitogens and/or beta cell protective agents the inventors treated INS-1E cells with different test compounds.
Total RNA from 8×10^4 cells growing on 4 cm^2 surface area of a tissue culture dish was extracted using Qiagen RNAeasy kit according to the instructions of the manufacturer (Qiagen) and 2 μg was converted into cDNA. Primers for pax4, 18S RNA, and rat RNA polymerase II largest subunit (RPB1) were designed using the Primer Express 1.5 Software from Applied Biosystems and sequences can be obtained upon request. Quantitative real-time PCR was performed using Applied Biosystems SDS 7000 detection system. Amplifications from 2 independent experiments were performed in duplicate for each transcript and mean values were normalized to the mean value of the reference RNA 18S RNA.
(§1) Cells were seeded at a density of 2×10^4 cells per cm^2 6 to 8 days before the treatment with chemicals. During the growth period the medium was changed once. The cells were incubated for different periods of time with chemicals under serum-free conditions. The cells were harvested in Qiagen RNAeasy cell lysate buffer and immediately transferred to dry ice. The samples were stored at −20° C. until RNA isolation was carried out.
as §1, with “RNA easy” for “RNAeasy”, “−20 degree” for “−20° C.”

Pax4 [2] = test: Pax4 transcription in rat islets, quantitative RT-PCR; type: cell-based
Source text: The response of the Pax4 gene to two compounds was investigated in rat islets. […] No effects were observed on the expression levels of cyclophilin B and RNA polymerase II largest subunit (RPB1) indicating a specific regulation of the Pax4 gene.
Total RNA from 200 to 400 islets growing in wells with 4 cm^2 surface area of a tissue culture dish was isolated according to instruction of the manufacturer of Trizol™ reagent. To further purify the RNA and to remove remaining DNA contaminations RNA was treated with the Qiagen RNAeasy kit according to the instructions of the manufacturer (Qiagen) and about 1 μg was converted into cDNA. Primers for pax4, 18S RNA, and rat RNA polymerase II largest subunit (RPB1) were designed using the Primer Express 1.5 Software from Applied Biosystems. Quantitative real-time PCR was performed using Applied Biosystems SDS 7000 detection system. Amplifications from at least 2 independent experiments were performed in duplicate for each transcript and mean values were normalized to the mean value of the reference RNA 18S RNA.
Rat islets were isolated from Wistar rats and cultured as described (Brun et al., 2004, JCB; 167: 1123-1135). In brief, 10 ml ice-cold liberase solution (Roche) was injected into the pancreas via the common bile duct. After dissection the pancreas was incubated for 40 minutes at 37° C. and then further dissociated by repeated pipetting using a 10 ml pipette. Islets were isolated by applying digested tissue to a ficoll-gradient before they were manually picked using a stereomicroscope. Islets were placed in bacteriological wells and compounds were administered as indicated. Islets were harvested in Trizol™ and immediately transferred to dry ice. The samples were stored at −20° C. until RNA isolation was carried out.

INS-1E cells = test: Protection against apoptotic signals, nucleosomal fragmentation (cell death detection ELISA) and morphology; type: cell-based, rat
Procedure: FIG. 7: Determination of cytokine or high glucose and fatty acid induced Nucleosomal-fragmentation in INS-1 cells. To induce apoptosis INS-1 cells were exposed to the cytokines IL-1 beta at 4 ng/ml and IFN-gamma at 1 U/ml (Cyt. in figure A) or glucose at […] and palmitate at […] (Pal/Gluc in figure B) for 24 hours. 1 hour before the application of these reagents indicated cell samples were treated with 10 μM 1-Azakenpaullone (AzaP) or 15 μM NG-monomethyl-L-arginine monoacetate (L-NMMA) an inhibitor of the inducible nitric oxide synthase (iNOS). Apoptosis was assessed by determination of nucleosomal accumulation in the cytosolic extracts using a cell death detection ELISA kit. Nucleosomal release is expressed relative to untreated control cells (Co.).
FIG. 8: Cell morphology of treated cells was inspected by light microscopy. Cell morphologies of untreated (A), Pal/Gluc (B) and Pal/Gluc+AzaP (C) treated cells are shown.
The beta cell line INS-1E was used to investigate anti-apototic effects of the compounds of the invention on beta cells. Apotosis was induced by culturing cells with a cytokine combination (interleukine-1beta/interferon gamma) or with high concentrations of both glucose and palmitate. 1-Azakenpaullone strongly (60%) inhibited cytokine-induced apoptosis (FIG. 7A), with a weaker effect (25%) against glucolipotoxicity induced apoptosis (FIG. 7B). The state of the treated and untreated cells was analyzed by microscopy.
INS-1E cells were cultured as described (Merglen et al., (2004) Endocrinology; 145: 667-678). Cells were seeded at a density of 1×10^4 cells per 96-well in 96 well plates in 200 μl culture medium for 3 days. Then, cells were cultured for 1 day in 100 μl medium containing 1% FCS and 5 mM glucose. […] The rate of apoptosis was measured by the specific determination of mono- and oligonucleosomes in the cytoplasmic fraction of cell lysates using a cell death detection ELISA kit (ROCHE Cat. No. 1774425). The assay is based on a quantitative sandwich-enzyme-immunoassay-principle using mouse monoclonal anti-histone and anti-DNA peroxidase antibodies. […]

Pax4 promoter = test: Cellular HTS-Pax4 screening assay (Capan-1 pKS-Pax-4-LUC luciferase reporter); type: cell-based, human; conditions: Capan-1 pKS-Pax-4-LUC clone18; compound 10 μM with Trichostatin A 0.75 μM; 30 hour
Source text: To perform high throughput screening for compounds that are either directly or indirectly capable of switching on Pax4 expression, a Pax4 reporter gene assay was established. Therefore, cDNA constructs containing a luciferase reporter gene under the control of the Pax4 promoter with the complete Pax4 gene locus were introduced into the human pancreatic duct cell line CAPAN-1.
Generation of stable Cell Lines and Drug Selections Capan-1 human pancreatic duct cell line ([HBT-79], purchased from American Type Culture Collection (ATCC), referred to as Capan-1 herein) were grown in high glucose DMEM [Gibco Cat. No. 61965-026] containing 10% FBS [Gibco Cat. No. 10270-106] at 37° C. under an atmosphere of 5% CO2. The Pax-4-reporter gene construct (referred to as pKS-Pax-4-LUC)— a cDNA construct containing a luciferase reporter (LUC) gene under the control of the Pax4 promoter with the complete Pax4 gene locus were cloned into the plasmid pBlueskript ks (FIG. 5). […]
Capan-1, stably transfected with pKS-Pax-4-LUC (clone18), cultivated without G418 for 4 day's, were plated at a density of 1×10^4 cells per 96 well plate [Greiner, LIA plate white, Cat. No. 655083] in 100 μl DMEM containing 10% (v/v) FBS without G418 and grown for 24 hour. […] The luminescence was measured within 15 minutes after reagent addition for maximum sensitivity.

minimal CMV promotor = test: Counter screen assay (Capan-1-pCMVmin-LUC-54 cells); type: cell-based, human; conditions: compound 10 μM with Trichostatin A 0.75 μM, 30 hour
Procedure: Generation of stable Cell Lines and Drug Selections Capan-1 human pancreatic duct cell line ([HBT-79], purchased from American Type Culture Collection (ATCC), referred to as Capan-1 herein) were grown in high glucose DMEM [Gibco Cat. No. 61965-026] containing 10% FBS [Gibco Cat. No. 10270-106] at 37° C. under an atmosphere of 5% CO2. The Pax-4-reporter gene construct (referred to as pKS-Pax-4-LUC)— a cDNA construct containing a luciferase reporter (LUC) gene under the control of the Pax4 promoter with the complete Pax4 gene locus were cloned into the plasmid pBlueskript ks (FIG. 5). The Minimal CMV reporter gene construct (referred to as pCMVmin-LUC): a fire fly luciferase reporter gene (LUC) under the control of a minimal CMV promotor (56 bp) was cloned into pcDNA3.1 plasmid (without promotor) (FIG. 6).
Stable transfected Capan-1-pCMVmin-LUC-54 cells, cultivated without G418 for 4 day's, were plated at a density of 4×10^4 cells per 96 well plate [Greiner, LIA plate white, Cat. No. 655083] in 100 μl DMEM containing 10% (v/v) FBS and grown for 24 hour. Cells were starved by serum starvation for 16 hour in 8511 medium without FBS [DMEM(Cat. No. 25030-024) containing 5% L-glutamine]. […] The luminescence was measured within 15 minutes after reagent addition for maximum sensitivity.

Pax4 [3] = test: Pax4 expression in human islets; type: cell-based; conditions: 5 μM, 48 h
Procedure: FIG. 2 illustrates relative Pax4 expression in untreated human islets and human islets, treated with 5 μM Kenpaullone (KP) for 48 h.
Further, human islets were treated with 5 μM Kenpaullone for 48 h. The treated islets show a 10-15 fold expression of Pax4 compared to untreated pancreatic islets.

Pax4 [4] = test: Pax4 expression in small intestine and colon
human Pax4 promoter = test: Pax4 reporter gene assay in INS-1-cl.-3.5 cells; type: cell-based, rat; conditions: INS-1-cl.-3.5 or INS-1-cl.-9 cells; FIG. 18, FIG. 19
Procedure: INS-1E cell lines were grown as described below. The Pax-4-reporter gene construct (referred to as pKS-Pax-4-LUC), a cDNA construct containing a firefly luciferase reporter (LUC) gene under the transcriptional control of human Pax4 promoter sequences and the nearly complete human Pax4 gene locus (cf. FIG. 5A) was cloned into the plasmid pBluescript ks.
Adherent INS-1E cells were transfected using Lipofectamine 2000 (Invitrogen) according to the protocol provided by the supplier. The transfected cells were treated with media containing 400 μg/ml G418 Sulfate (e.g. Geneticin from Gibco; Cat. No. 11811-098), a selection agent for eukaryotic cells, 24 to 48 hours after the transfection. To establish independent stable cell lines, cell colonies which occurred 2 to 6 weeks after the transfection were individually transferred to new culture dishes and then propagated like untransfected INS-1E cells, but in the presence of G418 Sulfate.
For the identification and/or characterization of beta-cell mitogens a Pax4 reporter gene assay has been established. […]
Luciferase activity that can be quantified using appropriate imaging systems reflects the activation status of the human Pax4 promoter. […]

With `O=C1Cc2c([nH]c3ccc(Br)cc23)-c2ncccc2N1` [1-Azakenpaullone] the “induction of relative Pax4 expression” value (Pax4 [1]; 3 μM) was “about 6 fold”, the “Pax4 RNA levels compared with technical control activin-A” value (Pax4 [2]) was “induces higher Pax4 RNA levels than activin-A” and the “time course of Pax4 RNA levels” value (Pax4 [2]) was “transiently up-regulates Pax4 RNA levels”. The “cell morphology by microscopy, signs of cell death” value (INS-1E cells; INS-1E exposed to toxic agents (Pal/Gluc), FIG. 8) was “partially antagonizes this effect”, the “inhibition of glucolipotoxicity induced apoptosis” value (INS-1E cells; INS-1E, glucose at 25 nM and palmitate at 0.04 nM for 24 hours, 10 μM compound 1 hour before, FIG. 7B) was 25% and the inhibition at 10 µM (INS-1E cells; Rattus norvegicus, INS-1E, IL-1 beta 4 ng/ml and IFN-gamma 1 U/ml for 24 hours, 10 μM compound 1 hour before, FIG. 7A, read-out: inhibition of cytokine-induced apoptosis) was 60%.

For `O=C1Cc2c([nH]c3ccc(Br)cc23)-c2ccccc2N1` [Kenpaullone, 9-Bromo-7,12-dihydro-indolo[3,2-d][1]benzazepin-6(5H)-one], the “induction of luciferase activity” value (Pax4 promoter) was 6 fold, the “induction in the counterscreen” value (minimal CMV promotor) was 1.2 fold and the “induction of relative Pax4 expression compared to the control” value (Pax4 [1]; 20 μM) was 8 fold. The “Pax4 gene transcription over time (in words)” value (Pax4 [1]; 20 μM, FIG. 1) was “transiently induces Pax4 gene transcription”, the “expression of Pax4 compared to untreated pancreatic islets” value (Pax4 [3]) was 10-15 fold and the “effect on Pax4 expression in small intestine and colon” value (Pax4 [4]) was “No effect”.

For TGF-beta 1: Activin related protein, the “Pax4 reporter response of clone (in words)” value (human Pax4 promoter) was “does not effect Pax4 transcription”.

B1: activin-A: technical control previously shown to activate Pax4 transcription in rat islets (protein, UniProt P08476 311-426, looked up)
Inhibin beta A chain: GLECDGKVNICCKKQFFVSFKDIGWNDWIIAPSGYHANYCEGECPSHIAGTSGSSLSFHSTVINHYRMRGHSPFANLKSCCVPTKLRPMSMLYYDDGQNIIKKDIQNMIVEECGCS
modifications: Inhibin beta A chain
B1 was tested, and the “time course of Pax4 RNA levels” value (Pax4 [2]) was “more sustained increase in Pax4 RNA levels”.
